Some results are limits rather than exact numbers.

For this assay, the system named is HCV 1b-Con-1 replicon. In words: HCV 1b-Con-1 replicon assay (luciferase reporter gene, HuH-7 cells). The format is cell-based, Hepatitis C virus (HCV) genotype 1b-Con1. The note with it: Hepatitis C virus, Huh-7, luciferase reporter gene activity in the replicon, in the presence of 5% FBS. On the technique in general: In antiviral work, replicon cells carry a viral genome segment that copies itself.
As a reminder, the EC50 is the concentration that produces a half-maximal response. Regarding `CCN(CC)[C@@H](C(=O)N1CCC[C@H]1C(=O)Nc1ccc(CN(Cc2ccc(NC(=O)[C@@H]3CCCN3C(=O)[C@@H](NC(=O)OC)[C@@H](C)OC)cc2)c2ccc(F)cc2)cc1)c1ccccc1` [Example 84, N-(methoxycarbonyl)-O-methyl-L-threonyl-N-[4-({[4-({1-[(2R)-2-(diethylamino)-2-phenylacetyl]-L-prolyl}amino)benzyl](4-fluorophenyl)amino}methyl)phenyl]-L-prolinamide], the EC50 is less than 1 nM.
On to `O=C(Nc1ccc(CN(Cc2ccc(NC(=O)[C@@H]3CCCN3C(=O)C(c3ccccc3)N3CC[C@H](F)C3)cc2)c2ccc(F)cc2)cc1)[C@@H]1CCCN1C(=O)C(c1ccccc1)N1CC[C@H](F)C1` (stereo partly drawn) [Example 119, (2S,2′S)-N,N′-{[(4-fluorophenyl)imino]bis(methanediylbenzene-4,1-diyl)}bis(1-{[(3S)-3-fluoropyrrolidin-1-yl](phenyl)acetyl}pyrrolidine-2-carboxamide)], for which the EC50 is less than 1 nM.
In the case of `CCC(O)(CC)C(C(=O)N1CCC[C@H]1C(=O)Nc1ccc(CN(Cc2ccc(NC(=O)[C@@H]3CCCN3C(=O)C(c3ccccc3)C(O)(CC)CC)cc2)c2ccc(F)cc2)cc1)c1ccccc1` (stereo partly drawn) [Example 105, (2S,2′S)-N,N′-{[(4-fluorophenyl)imino]bis(methanediylbenzene-4,1-diyl)}bis[1-(3-ethyl-3-hydroxy-2-phenylpentanoyl)pyrrolidine-2-carboxamide]], the EC50 was less than 1 nM.
As to `COC(=O)N[C@H](C(=O)N1CCC[C@H]1C(=O)Nc1ccc(CN(Cc2ccc(NC(=O)[C@@H]3CCCN3C(=O)[C@@H](NC(=O)OC)C(C)(C)C)cc2)C2CCCC2)cc1)C(C)(C)C` [Example 29, dimethyl[(cyclopentylimino)bis{methanediylbenzene-4,1-diylcarbamoyl(2S)pyrrolidine-2,1-diyl[(2S)-3,3-dimethyl-1-oxobutane-1,2-diyl]}]biscarbamate], the EC50 fell in the range of 100 to 250 nM.
Take `COC(=O)N[C@H](C(=O)N(C)[C@@H](C)C(=O)Nc1ccc(CN(Cc2ccc(NC(=O)[C@H](C)N(C)C(=O)[C@@H](NC(=O)OC)C(C)(C)C)cc2)c2ccccc2)cc1)C(C)(C)C` [Example 47, dimethyl[(phenylimino)bis{methanediylbenzene-4,1-diylimino[(2S)-1-oxopropane-1,2-diyl](methylimino)[(2S)-3,3-dimethyl-1-oxobutane-1,2-diyl]}]biscarbamate]: the EC50 is 1 to 10 nM.
Take `COC(=O)N[C@H](C(=O)N1CCC[C@H]1C(=O)Nc1ccc(CN(Cc2ccc(NC(=O)[C@@H]3CCCN3C(=O)[C@H](NC(=O)OC(C)(C)C)c3ccccc3)cc2)c2ccccc2)cc1)C(C)(C)C` [Example 74, N-(methoxycarbonyl)-3-methyl-L-valyl-N-(4-{[{4-[(1-{(2R)-2-[(tert-butoxycarbonyl)amino]-2-phenylacetyl}-L-prolyl)amino]benzyl}(phenyl)amino]methyl}phenyl)-L-prolinamide]: the EC50 is less than 1 nM.
As to `COC(=O)N[C@H](C(=O)N1C[C@@H](O)C[C@H]1C(=O)Nc1ccc(CN(Cc2ccc(NC(=O)[C@@H]3C[C@H](O)CN3C(=O)[C@@H](NC(=O)OC)C(C)(C)C)cc2)c2ccc(F)cc2)cc1)C(C)(C)C` [Example 136], the 50% effective concentration (EC50) was less than 1 nM.
Take `CCN(CC)[C@@H](C(=O)N1CCC[C@H]1C(=O)Nc1ccc(CN(Cc2ccc(NC(=O)[C@@H]3CCCN3C(=O)[C@H](NC(=O)OC)c3ccccc3)cc2)c2ccccc2)cc1)c1ccccc1` [Example 75, methyl [(1R)-2-{(2S)-2-[(4-{[{-4-[({(2S)-1-[(2R)-2-(diethylamino)-2-phenylacetyl]pyrrolidin-2-yl}carbonyl)amino]benzyl}(phenyl)amino]methyl}phenyl)carbamoyl]pyrrolidin-1-yl}-2-oxo-1-phenylethyl]carbamate]: the EC50 is less than 1 nM.
For `COC(=O)N1CCOC[C@H]1C(=O)N1CCC[C@H]1C(=O)Nc1ccc(CN(Cc2ccc(NC(=O)[C@@H]3CCCN3C(=O)[C@@H]3COCCN3C(=O)OC)cc2)c2ccc(F)cc2)cc1` [Example 144, dimethyl (3S,3′S)-3,3′-{[(4-fluorophenyl)imino]bis[methanediylbenzene-4,1-diylcarbamoyl(2S)pyrrolidine-2,1-diylcarbonyl]}dimorpholine-4-carboxylate], the EC50 lay in the range of 100 to 250 nM.
On to `O=C([C@@H](c1ccccc1)N1CCCC1)N1CCC[C@H]1c1nc2cc(CN(Cc3ccc4[nH]c([C@@H]5CCCN5C(=O)[C@@H](c5ccccc5)N5CCCC5)nc4c3)c3ccccc3)ccc2[nH]1` [Example 66, N,N-bis[(2-{(2S)-1-[(2R)-2-phenyl-2-pyrrolidin-1-ylacetyl]pyrrolidin-2-yl}-1H-benzimidazol-5-yl)methyl]aniline], for which the EC50 was less than 1 nM.
Regarding `COC(=O)N[C@H](C(=O)N1CCCC[C@H]1C(=O)Nc1ccc(CN(Cc2ccc(NC(=O)[C@@H]3CCCCN3C(=O)[C@@H](NC(=O)OC)C(C)(C)C)cc2)c2ccc(F)cc2)cc1)C(C)(C)C` [Example 101, methyl [(1S)-1-{[(2S)-2-{[4-({(4-fluorophenyl)[4-({[(2S)-1-{(2S)-2-[(methoxycarbonyl)amino]-3,3-dimethylbutanoyl}piperidin-2-yl]carbonyl}amino)benzyl]amino}methyl)phenyl]carbamoyl}piperidin-1-yl]carbonyl}-2,2-dimethylpropyl]carbamate], the EC50 was less than 1 nM.
For `COC(=O)N[C@H](C(=O)N1CC[C@H](O)[C@H]1C(=O)Nc1ccc(CN(Cc2ccc(NC(=O)[C@@H]3[C@@H](O)CCN3C(=O)[C@@H](NC(=O)OC)C(C)(C)C)cc2)c2ccc(F)cc2)cc1)C(C)(C)C` [Example 141], the EC50 was 10 to 100 nM.
For `COC(=O)N[C@H](C(=O)N1CCC[C@H]1c1nc2cc(CN(Cc3ccc4oc([C@@H]5CCCN5C(=O)[C@@H](NC(=O)OC)C(C)C)nc4c3)c3ccccc3)ccc2o1)C(C)C` [Example 148, methyl [(1S)-1-{[(2S)-2-(5-{[({2-[(2S)-1-{(2S)-2-[(methoxycarbonyl)amino]-3-methylbutanoyl}pyrrolidin-2-yl]-1,3-benzoxazol-5-yl}methyl)(phenyl)amino]methyl}-1,3-benzoxazol-2-yl)pyrrolidin-1-yl]carbonyl}-2-methylpropyl]carbamate], the EC50 fell in the range of 100 to 250 nM.
Consider `COC(=O)N[C@H](C(=O)N1CCC[C@H]1C(=O)Nc1ccc(CN(Cc2ccc(NC(=O)[C@@H]3CCCN3C(=O)[C@@H](NC(=O)OC)C(C)(C)OC)cc2)c2ccccc2)cc1)C(C)(C)OC` [Example 52, dimethyl [(phenylimino)bis{methanediylbenzene-4,1-diylcarbamoyl(2S)pyrrolidine-2,1-diyl[(2S)-3-methoxy-3-methyl-1-oxobutane-1,2-diyl]}]biscarbamate], for which the EC50 is 1 to 10 nM.
On to `COC(=O)N[C@H](C(=O)N1CCC[C@H]1C(=O)Nc1ccc(CN(Cc2ccc(NC(=O)[C@@H]3CCCN3C(=O)[C@@H](NC(=O)OC)C(C)(C)C)cc2)C(C)C)cc1)C(C)(C)C` [Example 30, dimethyl ([(1-methylethyl)imino]bis{methanediylbenzene-4,1-diylcarbamoyl(2S)pyrrolidine-2,1-diyl[(2S)-3,3-dimethyl-1-oxobutane-1,2-diyl]})biscarbamate], for which the concentration for a half-maximal effect (EC50) lay in the range of 100 to 250 nM.
`COC(=O)N[C@H](C(=O)N1CCC[C@H]1c1nc2cc(CN(Cc3ccc4[nH]c([C@@H]5CCCN5C(=O)[C@@H](NC(=O)OC)C(C)C)nc4c3)c3ccc(F)cc3)ccc2[nH]1)C(C)C` [Example 96, methyl [(1S)-1-{[(2S)-2-(5-{[(4-fluorophenyl)({2-[(2S)-1-{(2S)-2-[(methoxycarbonyl)amino]-3-methylbutanoyl}pyrrolidin-2-yl]-1H-benzimidazol-5-yl}methyl)amino]methyl}-1H-benzimidazol-2-yl)pyrrolidin-1-yl]carbonyl}-2-methylpropyl]carbamate]: the EC50 was less than 1 nM.
`CC(=O)O[C@H](C(=O)N1CCC[C@H]1C(=O)Nc1ccc(CN(Cc2ccc(NC(=O)[C@@H]3CCCN3C(=O)[C@H](OC(C)=O)c3ccccc3)cc2)c2ccc(F)cc2)cc1)c1ccccc1` [Example 113, [(4-fluorophenyl)imino]bis[methanediylbenzene-4,1-diylcarbamoyl(2S)pyrrolidine-2,1-diyl(1R)-2-oxo-1-phenylethane-2,1-diyl]diacetate]: the EC50 is less than 1 nM.
Take `O=C(Nc1ccc(CN(Cc2ccc(NC(=O)[C@@H]3CCCN3C(=O)[C@@H](c3ccccc3)N3CCCC3)cc2)c2ccccc2)cc1)[C@@H]1CCCN1C(=O)[C@@H](c1ccccc1)N1CCCC1` [Example 55, (2S,2′S)-N,N′-[(phenylimino)bis(methanediylbenzene-4,1-diyl)]bis{1-[(2R)-2-phenyl-2-pyrrolidin-1-ylacetyl]pyrrolidine-2-carboxamide}]: the concentration giving a half-maximal response (EC50) was less than 1 nM.
Consider `COC(=O)N[C@H](C(=O)N1CCC[C@H]1C(=O)Nc1ccc(CN(Cc2ccc(NC(=O)[C@@H]3CCCN3C(=O)[C@@H](NC(=O)OC)C(C)(C)C)cc2)c2ccc(F)c(F)c2)cc1)C(C)(C)C` [Example 90, dimethyl ([(3,4-difluorophenyl)imino]bis{methanediylbenzene-4,1-diylcarbamoyl(2S)pyrrolidine-2,1-diyl[(2S)-3,3-dimethyl-1-oxobutane-1,2-diyl]})biscarbamate], for which the EC50 is less than 1 nM.
For `O=C(Nc1ccc(CN(Cc2ccc(NC(=O)[C@@H]3CCCN3C(=O)C(c3ccccc3)N3CC[C@@H](F)C3)cc2)c2ccc(F)cc2)cc1)[C@@H]1CCCN1C(=O)C(c1ccccc1)N1CC[C@@H](F)C1` (stereo partly drawn) [Example 116, (2S,2′S)-N,N′-{[(4-fluorophenyl)imino]bis(methanediylbenzene-4,1-diyl)}bis(1-{[(3R)-3-fluoropyrrolidin-1-yl](phenyl)acetyl}pyrrolidine-2-carboxamide)], the EC50 is less than 1 nM.
`COC(=O)N[C@H](C(=O)N1CCC[C@H]1C(=O)Nc1ccc(CN(Cc2ccc(NC(=O)[C@@H]3CCCN3C(=O)[C@@H](NC(=O)OC)c3ccccc3)cc2)c2ccccc2)cc1)c1ccccc1` [Example 11, Dimethyl (1S,1′S)-2,2′-((2S,2′S)-2,2′-(4,4′-(phenylazanediyl)bis(methylene)bis(4,1-phenylene)bis(azanediyl))bis(oxomethylene)bis(pyrrolidine-2,1-diyl))bis(2-oxo-1-phenylethane-2,1-diyl)dicarbamate]: the EC50 is less than 1 nM.

The record behind these values is patent publication US9278922B2 (ABBVIE INC., priority 2009, dated 2016).
